The values below come from patent US8901337B2, “Metal complexes having dual histone deacetylase inhibitory and DNA-binding activity” (Royal College of Surgeons in Ireland, priority 2009, dated 2014).

Like-named read-outs stand apart in the source and are kept apart here.

In series [1] the test system is non-tumorigenic human dermal fibroblast cell line (NHDF). Briefly: MTS in vitro cytotoxicity, NHDF. Conditions: 72 hours; for IC50: MTS. The series is classed as cell-based. On the procedure: In addition Normal Neonatal Human Dermal Fibroblast, NHDF, cells were cultured in Fibroblast Basal Medium (FBM®, Clonetics, Walkersville, USA) supplemented with hFGF-B, insulin, 5% FBS and gentamicin/amphotericin-B (FGM®-2 SingleQuots, Clonetics, Walkersville, USA).
(§1) All cells were kept in a humidified atmosphere with 5% CO2 at 37° C.; cells from confluent monolayers were removed from flasks by trypsin/EDTA solution and their viability determined by the trypan blue exclusion test.
(§2) Cell growth was determined by the [3-(4,5-dimethylthiazol-2-yl)-5-(3-carboxymethoxyphenyl)-2-(4-sulfophenyl)-2H-tetrazolium, inner salt, (MTS test, Promega, Southampton, UK), a colorimetric assay based on the ability of the viable cells to reduce a soluble yellow tetrazolium salt to blue formazan. 10,000 ovarian cancer cells or 3,000 fibroblast cells for example were seeded per well onto 96-well plates in 100 μl of the appropriate culture medium. 24 hr after sowing the cells, the media was removed and the cells were treated by adding 100 μl of the compound media solutions at the appropriate concentrations. cis-[Pt(NH3)2(malSAHA−2H)], cisplatin and cis-[Pt(NH3)2(mal)] were prepared freshly in cell culture media. […] The maximum percentage of dmso present in any well was less than 0.1% (v/v). cis-[Pt(NH3)2(malBel—2H)], belinostat and malbelinostat were freshly prepared in dimethyl formamide (DMF) and diluted in culture media prior to the MTS assay. The maximum percentage of DMF present in any well was 0.5% (v/v). A range of concentrations between 1 μM and 100 μM was used.
(§3) After 72 hr of treatment, 20 μl of the MTS reagent was added to each well and the plates incubated for 2 hr at 37° C. […] The percentages of surviving cells relative to untreated controls were determined.

The subject of series [2] is ovarian cancer cell line A2780 P. In words: MTS in vitro cytotoxicity, A2780 P. The series is classed as cell-based, human. Conditions: 72 hours; for IC50: MTS. The method, then: (§4) Cells were cultured in the appropriate media. […] In order to retain resistance 1 μM cisplatin was added to the media of the A2780 cisR cells every third passage. A2780 cisR cells are resistant to cisplatin through a combination of decreased uptake, enhanced DNA repair/tolerance, and elevated reduced glutathione levels
as §1, §2, §3

The test system of series [3] is cisplatin resistant ovarian cancer cell line A2780 cisR. Briefly: MTS in vitro cytotoxicity, A2780 cisR. In kind it is cell-based, human. Particulars: 72 hours; for IC50: MTS. The method, then:
as §4, §1, §2, §3

The subject of series [4] is A2780 P (ovarian cancer cells). In words: Cellular uptake of Pt (FAAS), A2780 P. The series is classed as cell-based, human. Conditions: for Uptake of Pt complexes into A2780 P: 10 μM. On the procedure: Cellular uptake of Pt compounds was measured in SKBR, SW480, A549, A2780P and CH1 cells. […] The cell monolayers at the end of the incubation with the Pt complexes were washed (twice) with ice-cold phosphate buffered saline (PBS), trypsinized and harvested into cold (4° C.) PBS. Cell suspensions were centrifuged and the pellets were stored in PBS at −80° C. until assayed. Afterward, the pellets were digested by high pressure microwave mineralization and Pt content was determined by flameless atomic absorption spectrophotometry (FAAS). The results of cellular Pt uptake were corrected for adsorption effects. All experiments were made in triplicate.^17

In the next series the test system is A549 (lung cancer cells). In words: Cellular uptake of Pt (FAAS), A549. Conditions: 10 μM, 72 hours treatment. The series is classed as cell-based. The method, then:
Cellular uptake of Pt compounds was measured in SKBR, SW480, A549, A2780P and CH1 cells. The cells were seeded in 60 mm tissue culture dishes with 10 mL of their respective medium and after overnight incubation, the cells were treated with the Pt complexes for 72 h at 10 μM concentration. The cell monolayers at the end of the incubation with the Pt complexes were washed (twice) with ice-cold phosphate buffered saline (PBS), trypsinized and harvested into cold (4° C.) PBS. Cell suspensions were centrifuged and the pellets were stored in PBS at −80° C. until assayed. Afterward, the pellets were digested by high pressure microwave mineralization and Pt content was determined by flameless atomic absorption spectrophotometry (FAAS). The results of cellular Pt uptake were corrected for adsorption effects. All experiments were made in triplicate.^17

Series [5] relates to lung cancer cell line (A549). Briefly: MTS in vitro cytotoxicity, A549. In kind it is cell-based. Particulars: 72 hours, Table 1, read-out: IC50 values against A549. The method, then:
as §1, §2, §3

The subject of series [6] is DNA in SW480 cells (colon cancer). Briefly: Pt binding to DNA in cultured cells (ICP-MS), SW480. The series is classed as cell-based. Conditions: 2 hours of cell treatment. On the procedure:
Pt DNA binding of Pt complexes was measured in SW480 cells (colon cancer) and CH1 cells (lymphoma) or alternatively A2780 P and A2780 cisR cells (sensitive and resistant to cisplatin respectively). The cells were seeded in 60 mm tissue culture dishes with 10 ml of their respective medium. After overnight incubation the medium was removed and replaced with 10 ml of the respective medium containing a platinum complex giving a final concentration of 43 or 40 μM depending on the experiment. The cells were incubated with a given Pt complex for either 2 or 4 h depending on the experiment. The cells were trypsinised and centrifuged. The supernantant was removed and the cells washed twice with 1×PBS and centrifuged. The pellet was re-suspended in DNA buffer to which Proteinase K (20 mg/mL) and 10% SDS were added. After a gentle shake and incubation at 45° C. for two hours, RNAse (100 mg/mL) was added and the cells were incubated at 37° C. overnight. The volume of supernatant was noted and an equal volume of phenol was added.
The resulting mixture was shook for 10 min, then centrifuged for 10 min at 10° C. The supernatant was transferred into a new centrifuge tube (15 ml) and the volume was noted. To this was added an equal volume of phenol and chloroform/isoamylalcohol (24:1). The resulting mixture was shook for 10 min, then centrifuged for 10 min at 10° C. (3000 RPM). The supernatant was transferred into a new centrifuge tube (15 mL) and the volume was noted. To this was added an equal volume of chloroform. The resulting mixture was shook for 10 min, then centrifuged for 10 min at 10° C. The supernatant was transferred into a new centrifuge tube (15 mL) and the volume was noted. To this was added a volume that is 1/10 of the supernatant of 3 M sodium acetate (Ph 5.2) and three times the volume of cold 100% isopropanol (from freezer). The solution was shook gently until the DNA is precipitated. […] The absorbance of the DNA by was measured by UV spectrophotometry at 260 nm and 280 nm and the concentration of DNA calculated. Platinum bound to DNA was determined by ICP-MS.

The mark [7] stands for this setting: Table 5, read-out: IC50 (μM) ± S.E.M. against NHDF.
Where [8] appears, read: Table 5, read-out: IC50 (μM) ± S.E.M. against A2780P.
The mark [9] stands for this setting: Table 5, read-out: IC50 (μM) ± S.E.M. against A2780CisR.
The mark [10] stands for this setting: Table 1, read-out: IC50 values against NHDF.
The mark [11] stands for this setting: Table 1, read-out: IC50 values against A2780 P.
Where [12] appears, read: Table 1, read-out: IC50 values against A2780cisR.

Broadly, the IC50 is the concentration that gives 50% inhibition.

With `[NH2][Pt]1([NH2])[O]C(=O)C(Cc2ccc(NS(=O)(=O)c3ccc(/C=C/C(=O)NO)cc3)cc2)C(=O)[O]1` [cis-[Pt(NH3)2(malBel−2H)], cis-[Pt(NH3)2(malBel−2H)].1.5H2O], the IC50 was found to be 33.9 ± 2 µM in series [1] (setting [7]), 7.6 ± 0.3 µM in series [2] (setting [8]) and 11.7 ± 0.9 µM in series [3] (setting [9]). Besides, in series [2] (cytotoxicity), the “selectivity for A2780 P over normal cell line NHDF” value is recorded as “displays selectivity for A2780 P cancer cell line over representative normal cell line NHDF”. The “activity against cisplatin resistant A2780 cisR (in words)” value in series [3] (cytotoxicity) is “retains activity against A2780 cisR cell line”. Besides, the “Uptake of Pt complexes into A2780 P” value in series [4] (24 hours treatment) amounted to 154 ± 10 pmol Pt/2 × 10^6 cell. Also, the “uptake by cancer cells (in words)” value in series [4] (24 hours treatment, A2780 P and A2780 cisR) was “is taken up by cancer cells after 24 hours treatment”.
For the compound `[NH2][Pt]1([NH2])[O]C(=O)C(Cc2ccc(NC(=O)CCCCCCC(=O)NO)cc2)C(=O)[O]1` [cis-[Pt(NH3)2(malSAHA−2H)], cis-[Pt(NH3)2(malSAHA−2H)].3H2O], the IC50 in series [1] (setting [10]) was found to be 83 ± 7.6 µM; in series [2] (setting [11]), 9 ± 3.1 µM; in series [3] (setting [12]) it was 70 ± 3.5 µM; in series [5], 12.7 ± 1.8 µM. The “selectivity for cancer cell lines over normal cell line NHDF” value in series [1] (cytotoxicity) is reported as “displays selectivity for cancer cell lines over representative normal cell line NHDF”. In addition, the “Uptake of Pt complexes into A549” value with A549 (lung cancer cells) is recorded as 6419 ± 619 pmol Pt/2 × 10^6 cell. Further, the “Uptake of Pt complexes into A2780 P” value in series [4] (72 hours treatment) turned out to be 5535 ± 865 pmol Pt/2 × 10^6 cell. The “binding of Pt to DNA in cultured cells (in words)” value in series [6] (SW480 and CH1 cells) is “binds DNA in cultured cells after 2 hours of cell treatment”.
For `N.N.[Cl][Pt][Cl]` [cisplatin, cis-[Pt^II(NH3)2Cl2], reference compound], the IC50 in series [1] (setting [10]) is 10 ± 1.8 µM; in series [1] (setting [7]) it was 2.4 ± 0.6 µM; in series [2] (setting [11]) it was 2.9 ± 0.1 µM; in series [2] (setting [8]), 1.3 ± 0.1 µM; in series [3] (setting [12]) it was 28.5 ± 1.5 µM; in series [3] (setting [9]), 9.8 ± 1 µM. In addition, the IC50 in series [5] was found to be 6.3 ± 0.1 µM. In addition, in the series with A549 (lung cancer cells), the “Uptake of Pt complexes into A549” value is given as 614.85 ± 94.85 pmol Pt/2 × 10^6 cell. Moreover, the “Uptake of Pt complexes into A2780 P” value amounted to 290 ± 35 pmol Pt/2 × 10^6 cell in series [4] (24 hours treatment) and 612.25 ± 107.75 pmol Pt/2 × 10^6 cell in series [4] (72 hours treatment). The “DNA-bound Pt in SW480” value in series [6] (43 μM of Pt complexes) is 38.5 · 10^−15 moles of Pt/μg of DNA.
